Source: patent US7166611B2, “Pharmaceutical compositions having appetite suppressant activity” (priority 1997, dated 2007)

Legend:
Assay type in all cases: in vivo, rat
[1] = test system: rats; test: Bioassay of chromatographic fractions for appetite suppressant activity; settings: bioassay of fractions from silica gel chromatography
Description: The extract may be prepared from plant material such as the stems and roots of said plants of the genus Trichocaulon or of the genus Hoodia. The genus Trichocaulon and the genus Hoodia include succulent plants growing in arid regions such as are found in Southern Africa. In one application of the invention, the active appetite suppressant extract is obtained from the species Trichocaulon piliferum. The species Trichocaulon officinale may also be used to provide an active appetite suppressant extract. In another application of the invention, the active appetite suppressant extract may be obtained from the species Hoodia currorii, Hoodia gordonii or Hoodia lugardii.
The partially purified active extract may be dissolved in methanol, and may be further fractionated by column chromatography, employing silica gel as an adsorption medium and a chloroform/30% methanol mixture as an eluent. A plurality of different fractions may be obtained, and each may be evaluated, by suitable bioassaying procedures, to determine the appetite suppressant activity thereof.
A fraction having appetite suppressant activity may preferably be further fractionated such as by column chromatography using silica gel as an adsorption medium and a 9:1 chloroform:methanol solvent, and the resultant sub-fractions bioassayed for their appetite suppressant activity. […]

[2] = test system: male Wistar rats; test: Example 44 single oral dose study: food consumption
Description: (§1) Sample 1 to 3 were each administered as a single oral dose to male Wistar rats. Two additional control groups received vehicle (distilled water or DMSO). Orally administered fenfluramine (7.5 mg/kg) was included as a reference standard.
(§2) Fifty-five male Wistar rats were used for the study.
(§3) Bodyweights, food consumption (food hopper weight) and water consumption (bottle weight) were recorded daily at the same time each day from the day of arrival until the termination of the study.
(§4) On Day 1, the rats received a single oral (gavage) dose according to the following table:
(§5) Groups 1–8 were dosed using a constant dose volume of 10 ml/kg and groups 9–12 were dosed using a dose volume of 1 ml/kg.
(§6) Food and water consumption were also measured at […] after dosing on Day 1.
(§7) The post-dose food and water consumption measurements and bodyweights at each time-point for the P57-treated animals were compared with those for the relevant, similarly-treated vehicle control group using analysis of variance followed by Williams' test for comparisons with controls.
(§8) The data for the fenfluramine-treated animals was compared with that for the vehicle-treated control group using Student's t test.

[3] = test system: male Wistar rats; test: Example 44 single oral dose study: water consumption
Description: as §1, §2, §3, §4, §5, §6, §7, §8

[4] = Example 44 single oral dose study: bodyweight
Description: as §1, §2, §3, §4, §5, §7, §8

[5] = test system: male Wistar rats; test: Example 44 single oral dose study: liver histopathology; settings: for Liver (ORO stain): Hepatocyte fat - centrilobular(Total) / Liver (ORO stain): Hepatocyte fat - centrilobular, Minimal / Liver (ORO stain): No abnormalities detected / Liver: Hepatocyte necrosis - focal (Total) / Liver: Hepatocyte necrosis - focal, Minimal / Liver: No abnormalities detected (incidence) / Liver: Parenchymal inflammatory cell foci (Total) / Liver: Parenchymal inflammatory cell foci, Minimal / Liver: Portal leucocytes (Total) / Liver: Portal leucocytes, Minimal / Liver: Portal lymphoid infiltration (Total) / Liver: Portal lymphoid infiltration, Minimal: 5 examined
Description: Following the measurements of Day 8, the animals were killed by carbon dioxide asphyxiation, and the livers excised and placed in 10% buffered formalin, prior to histology.
Paraffin wax sections of each liver were taken at 4–5 μm and stained with haematoxylin and eosin. Additional sections were cut on a cryostat at 12 μm and stained for fat with Oil Red O (ORO).
Histological examination was restricted to the liver.

[6] = test system: young female rats; test: Oral Dose Anorectic Test, three consecutive days
Description: Animals were allocated to treatment groups using randomisation tables. Each treatment group consisted of three animals, with 6 animals in the control group. The test sample was dosed to young female rats with body weight 100–150 g at acclimatisation, for three consecutive days. Animals were identified by means of metallic ear tags and KMnO4 skin markings for easy identification. Animals were housed individually in standard rodent polycarbonate cages, and water and powdered commercial rodent pellets were available ad libitum. Water and food intakes were measured and calculated for each day. In order to find the minimum effective dose of the test sample, five doses were tested. Treatment was by oral gavage, with the test sample suspended in potato starch.
The test substance was compound (1), a white granular powder prepared from an extract from plant material in accordance with the invention, and the measured quantity of the test sample was mixed with prepared potato starch and dosed. Mixing with potato starch took place immediately before dosing on each day. Before withdrawal of the dosing volume for each animal, the suspensions were mixed thoroughly using a Vortex.
A range of five doses was tested, with a control group 15 receiving only the carrier substance.

[7] = 2.5 and 5.0 mg/kg single oral dose
[8] = 2.5 mg/kg single oral dose on Day 1
[9] = 5.0 mg/kg single oral dose on Day 1

3-0-[-β-D-thevetopyranosyl-(1→4)-β-D-cymaropyranosyl-(1→4)-β-D-cymaropyranosyl]-12β-0-tigloyloxy-14-hydroxy-14β-pregn-5-en-20-one [Compound (1)]
appetite suppressant activity [1]: marked appetite suppressant activity
Group mean food consumption (g ± sd) between Days: 1–2 ([2]; 2.5 mg/kg single oral dose): 26.8 ± 3.33 g
Group mean food consumption (g ± sd) between Days: 2–3 ([2]; 2.5 mg/kg single oral dose): 29.1 ± 3.43 g
Group mean food consumption (g ± sd) between Days: 3–4 ([2]; 2.5 mg/kg single oral dose): 31.7 ± 3.08 g
Group mean food consumption (g ± sd) between Days: 4–5 ([2]; 2.5 mg/kg single oral dose): 34.0 ± 2.95 g
Group mean food consumption (g ± sd) between Days: 5–6 ([2]; 2.5 mg/kg single oral dose): 34.4 ± 4.32 g
Group mean food consumption (g ± sd) between Days: 6–7 ([2]; 2.5 mg/kg single oral dose): 33.1 ± 4.11 g
Group mean food consumption (g ± sd) between Days: 7–8 ([2]; 2.5 mg/kg single oral dose): 34.8 ± 3.71 g
Group mean food consumption (g ± sd) between Days: 1–2 ([2]; 5.0 mg/kg single oral dose): 22.1 ± 2.19 g
Group mean food consumption (g ± sd) between Days: 2–3 ([2]; 5.0 mg/kg single oral dose): 21.0 ± 3.07 g
Group mean food consumption (g ± sd) between Days: 3–4 ([2]; 5.0 mg/kg single oral dose): 27.6 ± 5.26 g
Group mean food consumption (g ± sd) between Days: 4–5 ([2]; 5.0 mg/kg single oral dose): 30.5 ± 3.33 g
Group mean food consumption (g ± sd) between Days: 5–6 ([2]; 5.0 mg/kg single oral dose): 33.0 ± 3.16 g
Group mean food consumption (g ± sd) between Days: 6–7 ([2]; 5.0 mg/kg single oral dose): 32.4 ± 3.25 g
Group mean food consumption (g ± sd) between Days: 7–8 ([2]; 5.0 mg/kg single oral dose): 33.0 ± 3.84 g
duration of reduction in food consumption ([2]; 5.0 mg/kg single oral dose): 48 hours post-dose
food consumption versus vehicle-treated animals ([2]; 5.0 mg/kg single oral dose): statistically significant reductions in food consumption
Group mean water consumption (g ± sd) between Days: 1–2 ([3]; 2.5 mg/kg single oral dose): 32.2 ± 4.01 g
Group mean water consumption (g ± sd) between Days: 2–3 ([3]; 2.5 mg/kg single oral dose): 36.1 ± 12.42 g
Group mean water consumption (g ± sd) between Days: 3–4 ([3]; 2.5 mg/kg single oral dose): 38.3 ± 11.71 g
Group mean water consumption (g ± sd) between Days: 4–5 ([3]; 2.5 mg/kg single oral dose): 41.5 ± 16.60 g
Group mean water consumption (g ± sd) between Days: 5–6 ([3]; 2.5 mg/kg single oral dose): 34.7 ± 7.57 g
Group mean water consumption (g ± sd) between Days: 6–7 ([3]; 2.5 mg/kg single oral dose): 33.0 ± 4.20 g
Group mean water consumption (g ± sd) between Days: 7–8 ([3]; 2.5 mg/kg single oral dose): 35.3 ± 8.70 g
Group mean water consumption (g ± sd) between Days: 1–2 ([3]; 5.0 mg/kg single oral dose): 33.9 ± 2.40 g
Group mean water consumption (g ± sd) between Days: 2–3 ([3]; 5.0 mg/kg single oral dose): 31.5 ± 8.12 g
Group mean water consumption (g ± sd) between Days: 3–4 ([3]; 5.0 mg/kg single oral dose): 35.1 ± 3.82 g
Group mean water consumption (g ± sd) between Days: 4–5 ([3]; 5.0 mg/kg single oral dose): 37.7 ± 5.99 g
Group mean water consumption (g ± sd) between Days: 5–6 ([3]; 5.0 mg/kg single oral dose): 39.5 ± 7.78 g
Group mean water consumption (g ± sd) between Days: 6–7 ([3]; 5.0 mg/kg single oral dose): 37.4 ± 11.07 g
Group mean water consumption (g ± sd) between Days: 7–8 ([3]; 5.0 mg/kg single oral dose): 37.8 ± 6.42 g
effects on water consumption [3, 7]: No statistically significant effects on water consumption
Group mean bodyweight (g ± sd) on Day: 2 [4, 8]: 191.2 ± 11.15 g
Group mean bodyweight (g ± sd) on Day: 3 [4, 8]: 200.0 ± 11.25 g
Group mean bodyweight (g ± sd) on Day: 4 [4, 8]: 209.6 ± 12.28 g
Group mean bodyweight (g ± sd) on Day: 5 [4, 8]: 219.6 ± 12.95 g
Group mean bodyweight (g ± sd) on Day: 6 [4, 8]: 229.4 ± 13.69 g
Group mean bodyweight (g ± sd) on Day: 7 [4, 8]: 238.4 ± 14.50 g
Group mean bodyweight (g ± sd) on Day: 8 [4, 8]: 247.0 ± 14.35 g
Group mean bodyweight (g ± sd) on Day: 2 [4, 9]: 192.0 ± 9.93 g
Group mean bodyweight (g ± sd) on Day: 3 [4, 9]: 192.4 ± 9.84 g
Group mean bodyweight (g ± sd) on Day: 4 [4, 9]: 201.0 ± 11.27 g
Group mean bodyweight (g ± sd) on Day: 5 [4, 9]: 209.4 ± 12.70 g
Group mean bodyweight (g ± sd) on Day: 6 [4, 9]: 219.8 ± 11.86 g
Group mean bodyweight (g ± sd) on Day: 7 [4, 9]: 228.2 ± 12.28 g
Group mean bodyweight (g ± sd) on Day: 8 [4, 9]: 236.0 ± 13.95 g
effects on bodyweights [4, 7]: No statistically significant effects on bodyweights
Liver (ORO stain): Hepatocyte fat - centrilobular(Total) ([5]; Group 9, 2.5 mg/kg): 2
Liver (ORO stain): Hepatocyte fat - centrilobular, Minimal ([5]; Group 9, 2.5 mg/kg): 2
Liver (ORO stain): No abnormalities detected ([5]; Group 9, 2.5 mg/kg): 3
Liver: Hepatocyte necrosis - focal (Total) ([5]; Group 9, 2.5 mg/kg): 1
Liver: Hepatocyte necrosis - focal, Minimal ([5]; Group 9, 2.5 mg/kg): 1
Liver: No abnormalities detected (incidence) ([5]; Group 9, 2.5 mg/kg): 0
Liver: Parenchymal inflammatory cell foci (Total) ([5]; Group 9, 2.5 mg/kg): 0
Liver: Parenchymal inflammatory cell foci, Minimal ([5]; Group 9, 2.5 mg/kg): 0
Liver: Portal leucocytes (Total) ([5]; Group 9, 2.5 mg/kg): 1
Liver: Portal leucocytes, Minimal ([5]; Group 9, 2.5 mg/kg): 1
Liver: Portal lymphoid infiltration (Total) ([5]; Group 9, 2.5 mg/kg): 5
Liver: Portal lymphoid infiltration, Minimal ([5]; Group 9, 2.5 mg/kg): 5
Liver (ORO stain): Hepatocyte fat - centrilobular(Total) ([5]; Group 10, 5 mg/kg): 2
Liver (ORO stain): Hepatocyte fat - centrilobular, Minimal ([5]; Group 10, 5 mg/kg): 2
Liver (ORO stain): No abnormalities detected ([5]; Group 10, 5 mg/kg): 3
Liver: Hepatocyte necrosis - focal (Total) ([5]; Group 10, 5 mg/kg): 0
Liver: Hepatocyte necrosis - focal, Minimal ([5]; Group 10, 5 mg/kg): 0
Liver: No abnormalities detected (incidence) ([5]; Group 10, 5 mg/kg): 1
Liver: Parenchymal inflammatory cell foci (Total) ([5]; Group 10, 5 mg/kg): 0
Liver: Parenchymal inflammatory cell foci, Minimal ([5]; Group 10, 5 mg/kg): 0
Liver: Portal leucocytes (Total) ([5]; Group 10, 5 mg/kg): 0
Liver: Portal leucocytes, Minimal ([5]; Group 10, 5 mg/kg): 0
Liver: Portal lymphoid infiltration (Total) ([5]; Group 10, 5 mg/kg): 4
Liver: Portal lymphoid infiltration, Minimal ([5]; Group 10, 5 mg/kg): 4
histological examination of the liver ([5]; all doses tested, single oral dose, livers taken Day 8): No treatment-related changes were detected

C/C=C(\C)C(=O)O[C@@H]1CC2C(CC=C3C[C@@H](OC4CC(OC)C(OC5CC(OC)C(OC6OC(C)C(O)C(OC)C6O)C(C)O5)C(C)O4)CC[C@@]32C)[C@@]2(O)CC[C@H](C(C)=O)[C@@]12C (stereo partly drawn) [Compound (1), 3-0-[-β-D-thevetopyranosyl-(1→4)-β-D-cymaropyranosyl-(1→4)-β-D-cymaropyranosyl]-12β-0-tigloyloxy-14-hydroxy-14β-pregn-5-en-20-one]
appetite suppressant activity [1]: found to have appetite suppressing activity
body mass ([6]; 12.50 mg/kg group, oral): Actual loss in body mass
health of the animals ([6]; 6.25–50.00 mg/kg oral gavage, three consecutive days): Treatment did not affect the health of the animals
liver at post-mortem examination ([6]; all dose groups 6.25–50.00 mg/kg oral): friable livers
mean body mass gain over the total study period ([6]; all dose groups 6.25–50.00 mg/kg oral, three consecutive days): significantly reduced mean body mass gain
Respiratory rate ([6]; any dose group 6.25–50.00 mg/kg oral): in none of the animals in any dose group was significantly effected
water consumption ([6]; higher dose groups, oral, three consecutive days): increased water consumption
food intake and body mass gain ([6]; lowest dose group 6.25 mg/kg oral): Reduced food intake and reduced body mass gain
appetite suppressive action ([6]; lowest dose tested 6,25 mg/kg oral): has appetite suppressive action
